# Experiments:
# Assay in all cases: cells
# Settings in all cases: Homo sapiens
# MDA-MB-453 = format: functional, cell-based
# Description: SANGER: Inhibition of human MDA-MB-453 cell growth in a cell viability assay.
# G-402 = format: functional, cell-based
# Description: SANGER: Inhibition of human G-402 cell growth in a cell viability assay.
# HSC-3 = format: functional, cell-based
# Description: SANGER: Inhibition of human HSC-3 cell growth in a cell viability assay.
# J82 = format: functional, cell-based;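 further: growth inhibition of J82 cells, read out with a cell viability assay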
# Description: SANGER: Inhibition of human J82 cell growth in a cell viability assay.
# UMUC3 = format: functional, cell-based;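 further: growth inhibition of human UM-UC-3 cells, read out with a cell viability assay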
# Description: SANGER: Inhibition of human UM-UC-3 cell growth in a cell viability assay.
# LCLC-97TM1 = format: functional, cell-based;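 further: cell viability assay measuring growth inhibition of human LCLC-97TM1 cells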
# Description: SANGER: Inhibition of human LCLC-97TM1 cell growth in a cell viability assay.
# U-251 = format: functional, cell-based;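 further: growth inhibition of human U-251 cells, read out through a cell viability assay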
# Description: SANGER: Inhibition of human U251 cell growth in a cell viability assay.
# MEL-JUSO = format: functional, cell-based;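 further: growth inhibition of human MEL-JUSO cells, read out with a cell viability assay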
# Description: SANGER: Inhibition of human MEL-JUSO cell growth in a cell viability assay.
# CAKI-1 = format: functional, cell-based;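 further: growth inhibition of CAKI-1 cells, measured by a cell viability assay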
# Description: SANGER: Inhibition of human CAKI-1 cell growth in a cell viability assay.
# RERF-LC-MS = format: functional, cell-based;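 further: growth inhibition of human RERF-LC-MS cells, read out by a cell viability assay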
# Description: SANGER: Inhibition of human RERF-LC-MS cell growth in a cell viability assay.
# SK-HEP1 = format: functional, cell-based, SK-HEP-1;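 further: cell viability readout used to quantify reduction in proliferation of human SK-HEP-1 cells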
# Description: SANGER: Inhibition of human SK-HEP-1 cell growth in a cell viability assay.
# NCI-H1693 = format: functional, cell-based;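 further: growth inhibition of the human cell line, read out with a cell viability assay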
# Description: SANGER: Inhibition of human NCI-H1693 cell growth in a cell viability assay.
# HuP-T4 = format: functional, cell-based;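 further: cell viability assay measuring how much HuP-T4 cell growth is inhibited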
# Description: SANGER: Inhibition of human HuP-T4 cell growth in a cell viability assay.
# MDA-MB-157 = format: functional, cell-based
# Description: SANGER: Inhibition of human MDA-MB-157 cell growth in a cell viability assay.
# D-542MG = format: functional, cell-based
# Description: SANGER: Inhibition of human D-542MG cell growth in a cell viability assay.
# A2058 = format: functional, cell-based;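 further: reduction of A2058 cell growth, read out with a viability assay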
# Description: SANGER: Inhibition of human A2058 cell growth in a cell viability assay.
# C32 = format: functional, cell-based;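 further: cell viability assay, with IC50 reflecting inhibition of C32 cell growth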
# Description: SANGER: Inhibition of human C32 cell growth in a cell viability assay.
# EGI-1 = format: functional, cell-based;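 further: cell viability readout used to gauge growth inhibition of EGI-1 cells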
# Description: SANGER: Inhibition of human EGI-1 cell growth in a cell viability assay.
# KYSE-140 = format: functional, cell-based;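 further: cell viability assay measuring growth inhibition in human KYSE-140 cells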
# Description: SANGER: Inhibition of human KYSE-140 cell growth in a cell viability assay.
# NCI-H1993 = format: functional, cell-based;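 further: growth inhibition of the cancer cell line, assessed with a cell viability assay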
# Description: SANGER: Inhibition of human NCI-H1993 cell growth in a cell viability assay.
# OVCAR-3 = format: functional, cell-based;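 further: growth inhibition of human OVCAR-3 cells, determined by a cell viability assay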
# Description: SANGER: Inhibition of human OVCAR-3 cell growth in a cell viability assay.
# Ca9-22 = format: functional, cell-based;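 further: growth inhibition of Ca9-22 cells, read out with a cell viability assay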
# Description: SANGER: Inhibition of human Ca9-22 cell growth in a cell viability assay.
# GMS-10 = format: functional, cell-based;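 further: growth inhibition of GMS-10 cells, read out as cell viability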
# Description: SANGER: Inhibition of human GMS-10 cell growth in a cell viability assay.
# LU-99A = format: functional, cell-based;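 further: growth inhibition of LU-99A cells, read out with a cell viability assay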
# Description: SANGER: Inhibition of human LU-99A cell growth in a cell viability assay.
# H4 = format: functional, cell-based
# Description: SANGER: Inhibition of human H4 cell growth in a cell viability assay.
# BT-20 = format: functional, cell-based;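 further: cell viability assay measuring suppression of growth in human BT-20 cells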
# Description: SANGER: Inhibition of human BT-20 cell growth in a cell viability assay.
# NUGC-3 = format: functional, cell-based;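 further: growth inhibition of human NUGC-3 cells, read out with a cell viability assay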
# Description: SANGER: Inhibition of human NUGC-3 cell growth in a cell viability assay.
# M14 = format: functional, cell-based;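 further: growth inhibition of M14 cells, read out with a cell viability assay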
# Description: SANGER: Inhibition of human M14 cell growth in a cell viability assay.
# BFTC-909 = format: functional, cell-based
# Description: SANGER: Inhibition of human BFTC-909 cell growth in a cell viability assay.
# KP-N-YN = format: functional, cell-based;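 further: growth inhibition of KP-N-YN cells, read out with a cell viability assay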
# Description: SANGER: Inhibition of human KP-N-YN cell growth in a cell viability assay.
# AGS = format: functional, cell-based;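 further: growth inhibition of AGS cells, determined with a cell viability assay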
# Description: SANGER: Inhibition of human AGS cell growth in a cell viability assay.
# TYK-nu = format: functional, cell-based;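 further: growth inhibition of human TYK-nu cells, read out by a cell viability assay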
# Description: SANGER: Inhibition of human TYK-nu cell growth in a cell viability assay.
# NCI-H2030 = format: functional, cell-based;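 further: growth inhibition of human NCI-H2030 cells, read out by a cell viability assay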
# Description: SANGER: Inhibition of human NCI-H2030 cell growth in a cell viability assay.
# OE19 = format: functional, cell-based;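 further: growth inhibition of OE19 cells, measured through a cell viability read-out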
# Description: SANGER: Inhibition of human OE19 cell growth in a cell viability assay.
# NB12 = format: functional, cell-based;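 further: growth inhibition of human NB12 cells, read out by a cell viability assay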
# Description: SANGER: Inhibition of human NB12 cell growth in a cell viability assay.
# COLO-680N = format: functional, cell-based;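 further: cell viability assay used to measure inhibition of COLO-680N cell growth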
# Description: SANGER: Inhibition of human COLO-680N cell growth in a cell viability assay.
# OAW-42 = format: functional, cell-based;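 further: growth inhibition of OAW-42 cells, read out with a cell viability assay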
# Description: SANGER: Inhibition of human OAW-42 cell growth in a cell viability assay.
# NCI-H810 = format: functional, cell-based;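 further: IC50 reflects inhibition of cancer cell line growth, read out with a cell viability assay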
# Description: SANGER: Inhibition of human NCI-H810 cell growth in a cell viability assay.
# YAPC = format: functional, cell-based;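 further: growth inhibition of YAPC cells, measured with a cell viability assay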
# Description: SANGER: Inhibition of human YAPC cell growth in a cell viability assay.
# RPMI-7951 = format: functional, cell-based
# Description: SANGER: Inhibition of human RPMI-7951 cell growth in a cell viability assay.
# Capan-2 = format: functional, cell-based;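 further: Capan-2 cell growth inhibition, read out with a viability assay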
# Description: SANGER: Inhibition of human Capan-2 cell growth in a cell viability assay.
# KYSE-410 = format: functional, cell-based;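 further: growth inhibition of KYSE-410 cells, measured through a cell viability readout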
# Description: SANGER: Inhibition of human KYSE-410 cell growth in a cell viability assay.
compound,measurement,setting,value
CCCS(=O)(=O)Nc1ccc(F)c(C(=O)c2c[nH]c3ncc(Cl)cc23)c1F [PLX-4720],IC50,MDA-MB-453,> 10 µM
same,IC50,G-402,> 10 µM
same,IC50,HSC-3,8.07 µM
same,IC50,J82,> 10 µM
same,IC50,UMUC3,> 10 µM
same,IC50,LCLC-97TM1,> 10 µM
same,IC50,U-251,> 10 µM
same,IC50,MEL-JUSO,> 10 µM
same,IC50,CAKI-1,> 10 µM
same,IC50,RERF-LC-MS,> 10 µM
same,IC50,SK-HEP1,> 10 µM
same,IC50,NCI-H1693,> 10 µM
same,IC50,HuP-T4,> 10 µM
same,IC50,MDA-MB-157,> 10 µM
same,IC50,D-542MG,> 10 µM
same,IC50,A2058,4.72 µM
same,IC50,C32,0.151 µM
same,IC50,EGI-1,> 10 µM
same,IC50,KYSE-140,> 10 µM
same,IC50,NCI-H1993,> 10 µM
same,IC50,OVCAR-3,> 10 µM
same,IC50,Ca9-22,> 10 µM
same,IC50,GMS-10,> 10 µM
same,IC50,LU-99A,> 10 µM
same,IC50,H4,6.22 µM
same,IC50,BT-20,> 10 µM
same,IC50,NUGC-3,> 10 µM
same,IC50,M14,0.218 µM
same,IC50,BFTC-909,> 10 µM
same,IC50,KP-N-YN,> 10 µM
same,IC50,AGS,> 10 µM
same,IC50,TYK-nu,> 10 µM
same,IC50,NCI-H2030,> 10 µM
same,IC50,OE19,> 10 µM
same,IC50,NB12,> 10 µM
same,IC50,COLO-680N,> 10 µM
same,IC50,OAW-42,> 10 µM
same,IC50,NCI-H810,> 10 µM
same,IC50,YAPC,> 10 µM
same,IC50,RPMI-7951,5.8 µM
same,IC50,Capan-2,> 10 µM
same,IC50,KYSE-410,> 10 µM
C[C@]1(c2nc3c(C(N)=O)cccc3[nH]2)CCCN1 [VELIPARIB],IC50,MDA-MB-453,> 5 µM
same,IC50,G-402,> 5 µM
same,IC50,HSC-3,> 5 µM
same,IC50,J82,> 5 µM
same,IC50,UMUC3,> 5 µM
same,IC50,LCLC-97TM1,> 5 µM
same,IC50,U-251,> 5 µM
same,IC50,MEL-JUSO,> 5 µM
same,IC50,CAKI-1,> 5 µM
same,IC50,RERF-LC-MS,> 5 µM
same,IC50,SK-HEP1,> 5 µM
same,IC50,NCI-H1693,> 5 µM
same,IC50,HuP-T4,> 5 µM
same,IC50,MDA-MB-157,> 5 µM
same,IC50,D-542MG,> 5 µM
same,IC50,A2058,> 5 µM
same,IC50,C32,> 5 µM
same,IC50,EGI-1,> 5 µM
same,IC50,KYSE-140,> 5 µM
same,IC50,NCI-H1993,> 5 µM
same,IC50,OVCAR-3,> 5 µM
same,IC50,Ca9-22,> 5 µM
same,IC50,GMS-10,> 5 µM
same,IC50,LU-99A,> 5 µM
same,IC50,H4,> 5 µM
same,IC50,BT-20,> 5 µM
same,IC50,NUGC-3,> 5 µM
same,IC50,M14,> 5 µM
same,IC50,BFTC-909,> 5 µM
same,IC50,KP-N-YN,> 5 µM
same,IC50,AGS,> 5 µM
same,IC50,TYK-nu,> 5 µM
same,IC50,NCI-H2030,> 5 µM
same,IC50,OE19,> 5 µM
same,IC50,NB12,> 5 µM
same,IC50,COLO-680N,> 5 µM
same,IC50,OAW-42,> 5 µM
same,IC50,NCI-H810,> 5 µM
same,IC50,YAPC,> 5 µM
same,IC50,RPMI-7951,> 5 µM
same,IC50,Capan-2,> 5 µM
same,IC50,KYSE-410,> 5 µM
CC[C@]1(O)C[C@@H]2CN(CCc3c([nH]c4ccccc34)[C@@](C(=O)OC)(c3cc4c(cc3OC)N(C)[C@H]3[C@@](O)(C(=O)OC)[C@H](OC(C)=O)[C@]5(CC)C=CCN6CC[C@]43[C@@H]65)C2)C1 [VINBLASTINE],IC50,MDA-MB-453,0.00329 µM
same,IC50,G-402,0.0176 µM
same,IC50,HSC-3,0.00439 µM
same,IC50,J82,0.0685 µM
same,IC50,UMUC3,0.00511 µM
same,IC50,LCLC-97TM1,0.00549 µM
same,IC50,U-251,0.00502 µM
same,IC50,MEL-JUSO,0.0175 µM
same,IC50,CAKI-1,0.0246 µM
same,IC50,RERF-LC-MS,0.0151 µM
same,IC50,SK-HEP1,0.0121 µM
same,IC50,NCI-H1693,0.0782 µM
same,IC50,HuP-T4,0.0432 µM
same,IC50,MDA-MB-157,0.00906 µM
same,IC50,D-542MG,> 0.1 µM
same,IC50,A2058,0.00122 µM
same,IC50,C32,> 0.1 µM
same,IC50,EGI-1,0.0108 µM
same,IC50,KYSE-140,0.0449 µM
same,IC50,NCI-H1993,> 0.1 µM
same,IC50,OVCAR-3,0.0469 µM
same,IC50,Ca9-22,0.00639 µM
same,IC50,GMS-10,0.0113 µM
same,IC50,LU-99A,0.0208 µM
same,IC50,H4,0.00584 µM
same,IC50,BT-20,0.0377 µM
same,IC50,NUGC-3,0.00346 µM
same,IC50,M14,0.00319 µM
same,IC50,BFTC-909,0.00753 µM
same,IC50,KP-N-YN,0.0464 µM
same,IC50,AGS,0.0123 µM
same,IC50,TYK-nu,0.0119 µM
same,IC50,NCI-H2030,0.0277 µM
same,IC50,OE19,> 0.1 µM
same,IC50,NB12,0.0614 µM
same,IC50,COLO-680N,0.0747 µM
same,IC50,OAW-42,> 0.1 µM
same,IC50,NCI-H810,0.0687 µM
same,IC50,YAPC,0.087 µM
same,IC50,RPMI-7951,0.00166 µM
same,IC50,Capan-2,> 0.1 µM
same,IC50,KYSE-410,0.0093 µM

# — ChEMBL document CHEMBL1201861, “Genomics of Drug Sensitity in Cancer screening data, Wellcome Trust Sanger Institute”
